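Following 48 hours of exposure in 96-well plates, responses at five concentrations were used to interpolate endpoints linearly. GI50 is the concentration that inhibits growth by half.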 The source made the active and inactive calls. Cut-off read from the data, not from the text of the source: active = GI50 up to about 1.1 µM and inactive = higher.
Legend:
Assay in all cases: DTP human tumour cell line panel, 48 h
NCI-H460 = test system: NCI-H460
CAKI-1 = test system: CAKI-1
UACC-257 = test system: UACC-257
NCI-H522 = test system: NCI-H522
786-0 = test system: 786-0
SW-620 = test system: SW-620
UO-31 = test system: UO-31
SK-MEL-5 = test system: SK-MEL-5
U-251 = test system: U-251
A498 = test system: A498
NCI-H226 = test system: NCI-H226
NCI-H23 = test system: NCI-H23
IGROV-1 = test system: IGROV-1
SK-OV-3 = test system: SK-OV-3
SK-MEL-28 = test system: SK-MEL-28
HT-29 = test system: HT-29
OVCAR-8 = test system: OVCAR-8
COLO 205 = test system: COLO 205

Row | SMILES | GI50 (NCI-H460) | GI50 (CAKI-1) | GI50 (UACC-257) | GI50 (NCI-H522) | GI50 (786-0) | GI50 (SW-620) | GI50 (UO-31) | GI50 (SK-MEL-5) | GI50 (U-251) | GI50 (A498) | GI50 (NCI-H226) | GI50 (NCI-H23) | GI50 (IGROV-1) | GI50 (SK-OV-3) | GI50 (SK-MEL-28) | GI50 (HT-29) | GI50 (OVCAR-8) | GI50 (COLO 205)
1 | O=C(O)CCC(NC(=O)c1ccc(Nc2nc3ccccc3nc2-c2cccs2)cc1)C(=O)O (configuration not stated) | > 100 µM (inactive) | > 100 µM (inactive) | > 100 µM (inactive) | > 100 µM (inactive) | > 100 µM (inactive) | > 100 µM (inactive) | > 100 µM (inactive) | > 100 µM (inactive) | > 100 µM (inactive) | > 100 µM (inactive) | > 100 µM (inactive) | > 100 µM (inactive) | > 100 µM (inactive) | > 100 µM (inactive) | > 100 µM (inactive) | > 100 µM (inactive) | > 100 µM (inactive) | 
2 | O=C(NCc1ccccc1)c1cc2cc(O)c(O)cc2cn1 | 9.79 µM (inactive) | 35.6 µM (inactive) | 26.9 µM (inactive) | 4.69 µM (inactive) | 22.9 µM (inactive) | 42.6 µM (inactive) | 18.1 µM (inactive) | 22.8 µM (inactive) | 17.5 µM (inactive) | 73.3 µM (inactive) | 26.9 µM (inactive) | 14 µM (inactive) | 30.3 µM (inactive) | 40.8 µM (inactive) | 35.7 µM (inactive) | 26.7 µM (inactive) | 21.2 µM (inactive) | 34.8 µM (inactive)
3 | Oc1ccc(O)c(-n2cccn2)c1-n1cccn1 | > 100 µM (inactive) | > 100 µM (inactive) |  | 25.7 µM (inactive) | > 100 µM (inactive) | 44.6 µM (inactive) | > 100 µM (inactive) | > 100 µM (inactive) | > 100 µM (inactive) | > 100 µM (inactive) |  | > 100 µM (inactive) | > 100 µM (inactive) | > 100 µM (inactive) | > 100 µM (inactive) | > 100 µM (inactive) | > 100 µM (inactive) | 30.5 µM (inactive)
4 | O=S(=O)(c1ccccc1)N1N=C2c3ccccc3CCC[C@H]2C1c1ccccc1 (some centres not stated) | 98.6 µM (inactive) | > 100 µM (inactive) | > 100 µM (inactive) | > 100 µM (inactive) | > 100 µM (inactive) | > 100 µM (inactive) | > 60.8 µM (inactive) | > 100 µM (inactive) | > 100 µM (inactive) | > 100 µM (inactive) | > 66.1 µM (inactive) | > 100 µM (inactive) | > 100 µM (inactive) | 34.2 µM (inactive) | > 100 µM (inactive) | > 100 µM (inactive) | > 100 µM (inactive) | > 100 µM (inactive)
5 | CS(=O)(=O)c1ccc(-c2cc(-c3ccc(S(C)(=O)=O)cc3)[n+](-c3cc(-c4ccc(S(C)(=O)=O)cc4)c([O-])c(-c4ccc(S(C)(=O)=O)cc4)c3)c(-c3ccc(S(C)(=O)=O)cc3)c2)cc1 | > 100 µM (inactive) | > 100 µM (inactive) | 56.5 µM (inactive) | > 100 µM (inactive) | > 100 µM (inactive) | > 100 µM (inactive) | > 100 µM (inactive) | > 100 µM (inactive) | > 100 µM (inactive) |  | > 100 µM (inactive) | > 100 µM (inactive) | > 100 µM (inactive) |  | > 100 µM (inactive) | > 100 µM (inactive) | > 100 µM (inactive) | > 100 µM (inactive)
6 | O=C1Nc2ccc(Cl)c(I)c2C1=O | 21.2 µM (inactive) | 21.6 µM (inactive) | 17.9 µM (inactive) | 17.2 µM (inactive) | 19.7 µM (inactive) | 19.5 µM (inactive) | 17.7 µM (inactive) | 19.2 µM (inactive) | 17.2 µM (inactive) |  | 0.608 µM (active) | 18.9 µM (inactive) | 17.1 µM (inactive) | 17.9 µM (inactive) | 17.8 µM (inactive) | 29.6 µM (inactive) | 18.7 µM (inactive) | 18.7 µM (inactive)
7 | O=S1(=O)c2cc(S(=O)(=O)n3ccnc3)ccc2NC2=NCCCN21 |  | 38.8 µM (inactive) | > 100 µM (inactive) | 14.2 µM (inactive) | 32.2 µM (inactive) | 26.2 µM (inactive) | 31 µM (inactive) | 20.2 µM (inactive) | 21.3 µM (inactive) | 28 µM (inactive) | 19.8 µM (inactive) | 30.7 µM (inactive) | 40.7 µM (inactive) | 20.3 µM (inactive) | > 100 µM (inactive) | 20.3 µM (inactive) | 27.2 µM (inactive) | 18.6 µM (inactive)
8 | CC(C)(C)C(=O)Nc1cccc2oc(-c3ccccc3)cc12 | > 100 µM (inactive) | > 100 µM (inactive) | > 100 µM (inactive) |  | > 100 µM (inactive) | > 100 µM (inactive) | 26.2 µM (inactive) |  | > 100 µM (inactive) | > 100 µM (inactive) |  | > 100 µM (inactive) | > 100 µM (inactive) | > 100 µM (inactive) | > 100 µM (inactive) | > 100 µM (inactive) | > 100 µM (inactive) | > 100 µM (inactive)
9 | CCOC(=O)C[C@@]12CCCN[C@]1(C)CCc1ccccc12 | > 100 µM (inactive) | > 100 µM (inactive) |  | > 100 µM (inactive) | > 100 µM (inactive) | > 100 µM (inactive) | > 100 µM (inactive) | > 100 µM (inactive) | > 100 µM (inactive) | > 100 µM (inactive) |  | > 100 µM (inactive) | > 100 µM (inactive) | > 100 µM (inactive) | > 100 µM (inactive) | > 100 µM (inactive) | > 100 µM (inactive) | 
10 | O=C(O)CNS(=O)(=O)c1ccc(NC(=O)c2ccccc2[N+](=O)[O-])cc1 | > 100 µM (inactive) | > 100 µM (inactive) | > 100 µM (inactive) | > 100 µM (inactive) | > 100 µM (inactive) | > 100 µM (inactive) | > 100 µM (inactive) | > 100 µM (inactive) | > 100 µM (inactive) | > 100 µM (inactive) |  | > 100 µM (inactive) | > 100 µM (inactive) | > 100 µM (inactive) | > 100 µM (inactive) | > 100 µM (inactive) | > 100 µM (inactive) | > 100 µM (inactive)
11 | N#CC(C#N)=C(C(C#N)C#N)C(C#N)C#N | > 100 µM (inactive) | > 100 µM (inactive) | > 100 µM (inactive) | > 100 µM (inactive) | > 100 µM (inactive) | > 100 µM (inactive) | > 100 µM (inactive) | > 100 µM (inactive) | > 100 µM (inactive) | > 100 µM (inactive) | > 100 µM (inactive) | > 100 µM (inactive) | > 100 µM (inactive) | > 100 µM (inactive) |  | > 100 µM (inactive) | > 100 µM (inactive) | > 100 µM (inactive)
12 | CC1=CCCC(OC(N)=O)C1 (configuration not stated) | > 100 µM (inactive) | > 100 µM (inactive) | > 100 µM (inactive) |  | > 100 µM (inactive) | > 100 µM (inactive) | > 100 µM (inactive) | > 100 µM (inactive) | > 100 µM (inactive) | 32.4 µM (inactive) |  | > 100 µM (inactive) | > 100 µM (inactive) | > 100 µM (inactive) |  | > 100 µM (inactive) | > 100 µM (inactive) | > 100 µM (inactive)
13 | C#CCN(N=O)C(=O)ON1C(=O)CCC1=O | > 100 µM (inactive) |  | > 100 µM (inactive) | > 100 µM (inactive) | > 100 µM (inactive) | > 100 µM (inactive) | > 100 µM (inactive) | > 100 µM (inactive) | 74.8 µM (inactive) | > 100 µM (inactive) |  | > 100 µM (inactive) | > 100 µM (inactive) | > 100 µM (inactive) | > 100 µM (inactive) | > 100 µM (inactive) | > 100 µM (inactive) | > 100 µM (inactive)
14 | FC(F)(F)c1ccccc1/C=N/C12CC3CC(CC(C3)C1)C2 | > 100 µM (inactive) | > 100 µM (inactive) | > 100 µM (inactive) |  | > 100 µM (inactive) | > 100 µM (inactive) | 0.908 µM (active) | 6.03 µM (inactive) | > 100 µM (inactive) | > 100 µM (inactive) | > 100 µM (inactive) | > 100 µM (inactive) | > 100 µM (inactive) | > 100 µM (inactive) | > 100 µM (inactive) | > 100 µM (inactive) | > 100 µM (inactive) | > 100 µM (inactive)
15 | CC1=C(C#N)C(=O)CC(c2ccc(Cl)cc2)N(C)N1 (configuration not stated) | > 100 µM (inactive) | > 100 µM (inactive) | > 100 µM (inactive) | > 100 µM (inactive) | > 100 µM (inactive) | > 100 µM (inactive) |  | > 100 µM (inactive) | > 100 µM (inactive) | > 100 µM (inactive) | > 100 µM (inactive) | > 100 µM (inactive) |  | > 100 µM (inactive) | > 100 µM (inactive) | > 100 µM (inactive) |  | 
16 | Cc1ccccc1C(C#N)C(=O)C(=O)Nc1nc([N+](=O)[O-])cs1 (configuration not stated) | > 100 µM (inactive) | > 100 µM (inactive) | > 100 µM (inactive) | > 100 µM (inactive) | > 100 µM (inactive) | > 100 µM (inactive) | > 100 µM (inactive) | > 100 µM (inactive) | > 100 µM (inactive) | > 100 µM (inactive) | > 100 µM (inactive) | > 100 µM (inactive) | > 100 µM (inactive) | > 100 µM (inactive) | > 100 µM (inactive) | > 100 µM (inactive) | > 100 µM (inactive) | 

From ChEMBL document CHEMBL1201862, “PubChem BioAssay data set” (2004)
